Reference: ChEMBL document CHEMBL1151208, “Cytotoxic flavonoids and alpha-pyrones from Cryptocarya obovata” (J Nat Prod, 2004)
The source made the active and inactive calls. No cut-off for these calls is given here.

System: KB
Test: Cytotoxicity against human KB cells
Assay type: functional, cell-based

Row | SMILES | Activity | IC50 [µM]
1 | CCOC(=O)CCC[C@@H]1C[C@H]2C[C@](/C=C/c3ccccc3)(Oc3cc4c(c(O)c32)C(=O)C[C@H](c2ccccc2)O4)O1 | inactive | –
2 | O=C1C=CC[C@H](C[C@@H]2C[C@H]3C[C@](/C=C/c4ccccc4)(Oc4c(C(=O)/C=C/c5ccccc5)c(O)cc(O)c43)O2)O1 [OBOCHALCOLACTONE] | – | 5
3 | CCOC(=O)CCC[C@@H]1C[C@H]2C[C@](/C=C/c3ccccc3)(Oc3cc4c(c(O)c32)C(=O)C[C@@H](c2ccccc2)O4)O1 | inactive | –
4 | O=C1C=C(/C=C/c2ccccc2)O[C@H](C[C@H]2CC=CC(=O)O2)C1 [OBOLACTONE] | – | 3
